From patent publication US5624923A, “Tricyclic diazepine vasopressin antagonists and oxytocin antagonists” (priority 1995, dated 1997)

How the values were obtained:
[1] = molecular target: T1, Rat Kidney Medullary V2 Receptors (Rattus norvegicus, UniProt Q00788); assay: Binding Assay to Rat Kidney Medullary V2 Receptors; conditions: for IC50: rat kidney medulla membranes, read-out: V2 IC50
T1 construct: Medullary tissues from rat kidneys are dissected out; from tissue; host or cells: rat kidney medulla membranes
T1 sequence (Q00788 whole entry): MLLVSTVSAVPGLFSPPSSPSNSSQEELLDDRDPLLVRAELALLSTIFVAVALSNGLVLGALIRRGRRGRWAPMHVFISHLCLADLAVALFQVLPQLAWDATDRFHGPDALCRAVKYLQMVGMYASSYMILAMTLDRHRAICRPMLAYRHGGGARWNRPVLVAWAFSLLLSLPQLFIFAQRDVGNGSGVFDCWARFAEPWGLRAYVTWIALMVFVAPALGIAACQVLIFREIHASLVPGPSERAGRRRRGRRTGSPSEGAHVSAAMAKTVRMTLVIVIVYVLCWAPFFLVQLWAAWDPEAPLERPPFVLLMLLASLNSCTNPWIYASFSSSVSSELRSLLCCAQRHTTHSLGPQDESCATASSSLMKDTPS
Experimental: Binding Assay to Rat Kidney Medullary V2 Receptors
Medullary tissues from rat kidneys are dissected out, cut into small pieces and soaked in a […] sodium chloride solution containing 1.0 mM EDTA with many changes of the liquid phase, until the solution is clear of blood. The tissue is homogenized in a 0.25M sucrose solution containing 1.0 mM EDTA and 0.1 mM PMSF using a Potter-Elvehjem homogenizer with a teflon pestle. The homogenate is filtered through several layers (4 layers) of cheese cloth. The filtrate is rehomogenized using a dounce homogenizer, with a tight fitting pestle. The final homogenate is centrifuged at 1500× g for 15 min. The nuclear pellet is discarded and the supernatant fluid recentrifuged at 40,000× g for 30 min. The resulting pellet formed contains a dark inner part with the exterior., slightly pink. The pink outer part is suspended in a small amount of 50.0 mM Tris. HCl buffer, pH 7.4. The protein content is determined by the Lowry's method (Lowry et al., J. Biol. Chem., 1953). The membrane suspension is stored at -70° C. in 50.0 mM Tris HCl, containing 0.2% inactivated BSA and 0.1 mM PMSF in aliquots of 1.0 ml containing 10.0 mg protein per ml of suspension until use in subsequent binding experiments.
The plates are left undisturbed on the bench top for 120 min to reach equilibrium. Non-specific binding is assessed in the presence of 1.0 μM of unlabeled ligand, added in 20 μl volume. For test compounds, these are solubilized in 50% dimethylsulfoxide (DMSO) and added in 20.0 μl volume to a final incubation volume of 200 μl. Upon completion of binding, the content of each well is filtered off, using a Brandel® cell Harvester (Gaithersburg, Md.). The radioactivity trapped on the filter disk by the ligand-receptor complex is assessed by liquid scintillation counting in a Packard LS Counter, with an efficiency of 65% for tritium. The data are analyzed for IC50 values by the LUNDON-2 program for competition (LUNDON SOFTWARE, Ohio).

Rat Hepatic V1 Receptors = molecular target: T2, Rat Hepatic V1 Receptors (Rattus norvegicus, UniProt P30560); assay: Binding Assay to Rat Hepatic V1 Receptors; conditions: for IC50: rat liver membranes, read-out: V1 IC50
T2 construct: Rat liver plasma membranes expressing the vasopressin V1 receptor subtypes; from tissue; host or cells: rat liver plasma membranes
T2 sequence (P30560 whole entry): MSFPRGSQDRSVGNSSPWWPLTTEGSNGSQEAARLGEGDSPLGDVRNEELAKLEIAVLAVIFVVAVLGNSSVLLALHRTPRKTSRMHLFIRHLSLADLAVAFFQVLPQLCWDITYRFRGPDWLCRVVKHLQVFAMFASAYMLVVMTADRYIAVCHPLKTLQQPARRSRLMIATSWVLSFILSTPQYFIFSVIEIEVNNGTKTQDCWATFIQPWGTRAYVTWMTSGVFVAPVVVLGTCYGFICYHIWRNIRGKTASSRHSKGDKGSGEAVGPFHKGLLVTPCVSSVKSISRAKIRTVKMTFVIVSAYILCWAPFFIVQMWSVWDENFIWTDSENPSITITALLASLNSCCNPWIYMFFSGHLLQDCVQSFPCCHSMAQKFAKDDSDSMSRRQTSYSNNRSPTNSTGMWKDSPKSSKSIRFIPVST
Experimental: Binding Assay to Rat Hepatic V1 Receptors
Rat liver plasma membranes expressing the vasopressin V1 receptor subtypes are isolated by sucrose density gradient according to the method described by Lesko et al., (1973). These membranes are quickly suspended in 50.0 mM Tris.HCl buffer, pH 7.4, containing 0.2% bovine serum albumin (BSA) and 0.1 mM phenylmethylsulfonylfluoride (PMSF) and kept frozen at -70° C. until used in subsequent binding experiments. For binding experiments, the following is added to the wells of a ninety-six well format microtiter plate: 100 μl of 100.0 mM Tris.HCl buffer containing 10.0 mM MgCl2, 0.2% heat inactivated BSA and a mixture of protease inhibitors: leupeptin, 1.0 mg %; aprotinin, 1.0 mg %; 1,10-phenanthroiine,2.0 mg %; trypsin inhibitor, 10.0 mg % and 0.1 mM PMSF, 20.0 μl of [phenylalanyl-3,4,5, -^3 H] vasopressin (S.A. 45.1 Ci/mmole) at 0.8 nM, and the reaction initiated by the addition of 80 μl of tissue membranes containing 20 μg of tissue protein. The plates are kept undisturbed on the bench top at room temperature for 120 min. to reach equilibrium. Non-specific samples are assayed in the presence of 0.1 μM of the unlabeled antagonist phenylalanylvasopressin, added in 20.0 μl volume.
For test compounds, these are solubilized in 50% dimethylsulfoxide (DMSO) and added in 20.0 μl volume to a final incubation volume of 200 μl . Upon completion of binding, the content of each well is filtered off, using a Brandel® cell Harvester (Gaithersburg, Md.). The radioactivity trapped on the filter disk by the ligand-receptor complex is assessed by liquid scintillation counting in a Packard LS Counter, with an efficiency of 65% for tritium. The data are analyzed for IC50 values by the LUNDON-2 program for competition (LUNDON SOFTWARE, Ohio).

Vasopressin V1 = Vasopressin V1 Antagonist Activity in Conscious Rats (vasopressin vasopressor response); format: in vivo, rat; set-up: Average Change: unit not given here; conditions: SHR
In short: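 Conscious rats are restrained supine, and under local 2% procaine a PE 10/20 cannula is passed through the ventral caudal tail artery into the lower abdominal aorta. The caudal vein is cannulated for intravenous dosing. Blood pressure is recorded with a Statham P23Db transducer, and vasopressin injections are repeated after compound dosing. Percent antagonism is calculated against the pre-drug vasopressor response taken as 100%.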

[2] = 10 mg/kg i.v., VAS 0.01 i.u./kg, 30 min
[3] = 10 mg/kg i.v., VAS 0.01 i.u./kg, 60 min
[4] = 10 mg/kg i.v., VAS 0.01 i.u./kg, 90 min
[5] = 10 mg/kg i.v., VAS 0.01 i.u./kg, 120 min
[6] = 10 mg/kg i.v., VAS 0.01 i.u./kg, 180 min
[7] = 10 mg/kg i.v., VAS 0.01 i.u./kg, 240 min
[8] = 10 mg/kg i.v., VAS 0.01 i.u./kg, 300 min
[9] = 10 mg/kg i.v., VAS 0.02 i.u./kg, 30 min
[10] = 10 mg/kg i.v., VAS 0.02 i.u./kg, 60 min
[11] = 10 mg/kg i.v., VAS 0.02 i.u./kg, 90 min
[12] = 10 mg/kg i.v., VAS 0.02 i.u./kg, 120 min
[13] = 10 mg/kg i.v., VAS 0.02 i.u./kg, 180 min
[14] = 10 mg/kg i.v., VAS 0.02 i.u./kg, 240 min
[15] = 10 mg/kg i.v., VAS 0.02 i.u./kg, 300 min
[16] = 20 mg/kg i.v., VAS 0.01 i.u./kg, 60 min
[17] = 20 mg/kg i.v., VAS 0.01 i.u./kg, 90 min
[18] = 20 mg/kg i.v., VAS 0.01 i.u./kg, 120 min
[19] = 20 mg/kg i.v., VAS 0.01 i.u./kg, 180 min
[20] = 20 mg/kg i.v., VAS 0.01 i.u./kg, 240 min
[21] = 20 mg/kg i.v., VAS 0.01 i.u./kg, 300 min
[22] = 20 mg/kg i.v., VAS 0.02 i.u./kg, 60 min
[23] = 20 mg/kg i.v., VAS 0.02 i.u./kg, 90 min
[24] = 20 mg/kg i.v., VAS 0.02 i.u./kg, 120 min
[25] = 20 mg/kg i.v., VAS 0.02 i.u./kg, 180 min
[26] = 20 mg/kg i.v., VAS 0.02 i.u./kg, 240 min
[27] = 20 mg/kg i.v., VAS 0.02 i.u./kg, 300 min

CCOc1ccccc1C(=O)Nc1ccc(C(=O)N2Cc3cccn3Cc3ccccc32)cc1 [Example 84, N-[4-(5H-Pyrrolo[2,1-c][1,4]benzodiazepin-10(11H)-ylcarbonyl)phenyl]-2-ethoxybenzamide]
IC50 [1]: 77 nM | IC50 (Rat Hepatic V1 Receptors): 45 nM | % Inhibition (Vasopressin V1; [2]): 77% | Average Change (Vasopressin V1; [2]): 10.5 | % Inhibition (Vasopressin V1; [3]): 64% | Average Change (Vasopressin V1; [3]): 16.5 | % Inhibition (Vasopressin V1; [4]): 72% | Average Change (Vasopressin V1; [4]): 13 | % Inhibition (Vasopressin V1; [5]): 58% | Average Change (Vasopressin V1; [5]): 19.5 | % Inhibition (Vasopressin V1; [6]): 47% | Average Change (Vasopressin V1; [6]): 24.5 | % Inhibition (Vasopressin V1; [7]): 43% | Average Change (Vasopressin V1; [7]): 26 | % Inhibition (Vasopressin V1; [8]): 51% | Average Change (Vasopressin V1; [8]): 22.5 | % Inhibition (Vasopressin V1; [9]): 76% | Average Change (Vasopressin V1; [9]): 14.5 | % Inhibition (Vasopressin V1; [10]): 45% | Average Change (Vasopressin V1; [10]): 33.5 | % Inhibition (Vasopressin V1; [11]): 57% | Average Change (Vasopressin V1; [11]): 26 | % Inhibition (Vasopressin V1; [12]): 47% | Average Change (Vasopressin V1; [12]): 32.5 | % Inhibition (Vasopressin V1; [13]): 48% | Average Change (Vasopressin V1; [13]): 31.5 | % Inhibition (Vasopressin V1; [14]): 39% | Average Change (Vasopressin V1; [14]): 37 | % Inhibition (Vasopressin V1; [15]): 30% | Average Change (Vasopressin V1; [15]): 43

Cc1c(CC(=O)Nc2ccc(C(=O)N3Cc4cccn4Cc4ccccc43)cc2)sc2ccccc12 [Example 87]
inhibition at 10 µM ([1]; 10 μM, rat): 80% | inhibition at 10 µM (Rat Hepatic V1 Receptors; 2 h, 10 μM, rat): 63% | % Inhibition (Vasopressin V1; [2]): 20% | Average Change (Vasopressin V1; [2]): 50 | % Inhibition (Vasopressin V1; [9]): 14% | Average Change (Vasopressin V1; [9]): 57 | % Inhibition (Vasopressin V1; [16]): 77% | Average Change (Vasopressin V1; [16]): 14.5 | % Inhibition (Vasopressin V1; [17]): 61% | Average Change (Vasopressin V1; [17]): 24.5 | % Inhibition (Vasopressin V1; [18]): 58% | Average Change (Vasopressin V1; [18]): 26 | % Inhibition (Vasopressin V1; [19]): 58% | Average Change (Vasopressin V1; [19]): 26.5 | % Inhibition (Vasopressin V1; [20]): 54% | Average Change (Vasopressin V1; [20]): 28.5 | % Inhibition (Vasopressin V1; [21]): 52% | Average Change (Vasopressin V1; [21]): 30 | % Inhibition (Vasopressin V1; [22]): 51% | Average Change (Vasopressin V1; [22]): 32.5 | % Inhibition (Vasopressin V1; [23]): 50% | Average Change (Vasopressin V1; [23]): 33.5 | % Inhibition (Vasopressin V1; [24]): 47% | Average Change (Vasopressin V1; [24]): 35.5 | % Inhibition (Vasopressin V1; [25]): 44% | Average Change (Vasopressin V1; [25]): 37.5 | % Inhibition (Vasopressin V1; [26]): 38% | Average Change (Vasopressin V1; [26]): 41 | % Inhibition (Vasopressin V1; [27]): 27% | Average Change (Vasopressin V1; [27]): 48.5

COc1cc(Cl)ccc1C(=O)Nc1ccc(C(=O)N2Cc3cccn3Cc3ccccc32)cc1 [Example 89, N-[4-(5H-Pyrrolo[2,1-c][1,4]benzodiazepin-10(11H)ylcarbonyl)phenyl]-4-chloro-2-methoxybenzamide]
IC50 [1]: 8 nM | IC50 (Rat Hepatic V1 Receptors): 23 nM | % Inhibition (Vasopressin V1; [2]): 88% | Average Change (Vasopressin V1; [2]): 5 | % Inhibition (Vasopressin V1; [3]): 81% | Average Change (Vasopressin V1; [3]): 7.5 | % Inhibition (Vasopressin V1; [4]): 81% | Average Change (Vasopressin V1; [4]): 7.5 | % Inhibition (Vasopressin V1; [5]): 63% | Average Change (Vasopressin V1; [5]): 15 | % Inhibition (Vasopressin V1; [6]): 38% | Average Change (Vasopressin V1; [6]): 25 | % Inhibition (Vasopressin V1; [7]): 38% | Average Change (Vasopressin V1; [7]): 25 | % Inhibition (Vasopressin V1; [8]): 31% | Average Change (Vasopressin V1; [8]): 27.5 | % Inhibition (Vasopressin V1; [9]): 92% | Average Change (Vasopressin V1; [9]): 5 | % Inhibition (Vasopressin V1; [10]): 84% | Average Change (Vasopressin V1; [10]): 10 | % Inhibition (Vasopressin V1; [11]): 80% | Average Change (Vasopressin V1; [11]): 12.5 | % Inhibition (Vasopressin V1; [12]): 56% | Average Change (Vasopressin V1; [12]): 27.5 | % Inhibition (Vasopressin V1; [13]): 48% | Average Change (Vasopressin V1; [13]): 32.5 | % Inhibition (Vasopressin V1; [14]): 44% | Average Change (Vasopressin V1; [14]): 35 | % Inhibition (Vasopressin V1; [15]): 48% | Average Change (Vasopressin V1; [15]): 32.5
